Measurements published in patent publication US5441941A, “1,2-dihydroellipticines with activity against CNS specific cancer” (The United States of America as represented by the …, priority 1993, dated 1995).

Experiments:
LXFL 529 = test: cells; conditions: Homo sapiens
LOX IMVI = test: NCI in vitro screen, SRB percent growth, Melanoma
ACHN = test: NCI in vitro screen, SRB percent growth, Renal Cancer
SK-MEL-28 = test: NCI in vitro screen, SRB percent growth, Melanoma
786-0 = test: cells; conditions: Homo sapiens
NCI-H460 = test: NCI in vitro screen, SRB percent growth, Non-Small Cell Lung Cancer
RXF-631 = test: NCI in vitro screen, SRB percent growth, Renal Cancer
SNB-19 = test: NCI in vitro screen, SRB percent growth, CNS Cancer
OVCAR-8 = test: NCI in vitro screen, SRB percent growth, Ovarian Cancer
CNS cancer cell lines = test: NCI in vitro screen, overall result on CNS cancer cell lines; conditions: Tables I and II
SW-620 = test: cells; conditions: Homo sapiens
IGROV1 = test: NCI in vitro screen, SRB percent growth, Ovarian Cancer
UACC-62 = test: NCI in vitro screen, SRB percent growth, Melanoma
MALME-3M = test: NCI in vitro screen, SRB percent growth, Melanoma
HCT-116 = test: NCI in vitro screen, SRB percent growth, Colon Cancer
EKVX = test: cells; conditions: Homo sapiens
SF-295 = test: NCI in vitro screen, SRB percent growth, CNS Cancer
[1] = LXFL 529, read-out: Percent Growth
[2] = Log10 Concentration -4.0, 100 µM
[3] = Log10 Concentration -7.0, 0.1 µM
[4] = 786-0, read-out: Percent Growth
[5] = SW-620, read-out: Percent Growth

Compound: Cc1ccc2[nH]c3c(C)c4c(c(C)c3c2c1)CN(C)C=C4 [Formula XI]
- GI50 (LXFL 529; LXFL 529): 0.353 µM
- CC50 (LXFL 529; LXFL 529, read-out: LC-50): 9.23 µM
- activity at 0.01 µM (LXFL 529; [1]): 78%
- activity at 0.1 µM (LXFL 529; [1]): 68%
- activity at 1 µM (LXFL 529; [1]): 35%
- activity at 10 µM (LXFL 529; [1]): -53%
- activity at 100 µM (LXFL 529; [1]): -84%
- IC (TGI) (LXFL 529; LXFL 529, read-out: TGI): 2.51 µM
- Percent Growth (LOX IMVI; [2]): -81%
- Percent Growth (LOX IMVI; Log10 Concentration -5.0): 26%
- Percent Growth (LOX IMVI; Log10 Concentration -6.0, 1 µM): 82%
- Percent Growth (LOX IMVI; [3]): 94%
- Percent Growth (LOX IMVI; Log10 Concentration -8.0): 98%
- TGI (LOX IMVI; PG=0): 17.4 µM
- GI50 (LOX IMVI; PG=+50): 3.67 µM
- CC50 (LOX IMVI; read-out: LC-50, PG=-50): 51.4 µM
- Percent Growth (ACHN; [2]): -92%
- Percent Growth (ACHN; Log10 Concentration -5.0): 30%
- Percent Growth (ACHN; Log10 Concentration -6.0, 1 µM): 81%
- Percent Growth (ACHN; [3]): 96%
- Percent Growth (ACHN; Log10 Concentration -8.0): 101%
- TGI (ACHN; PG=0): 17.6 µM
- GI50 (ACHN; PG=+50): 4.02 µM
- CC50 (ACHN; read-out: LC-50, PG=-50): 45.1 µM
- Percent Growth (SK-MEL-28; [2]): -95%
- Percent Growth (SK-MEL-28; Log10 Concentration -5.0): -61%
- Percent Growth (SK-MEL-28; Log10 Concentration -6.0, 1 µM): 108%
- Percent Growth (SK-MEL-28; [3]): 115%
- Percent Growth (SK-MEL-28; Log10 Concentration -8.0): 114%
- TGI (SK-MEL-28; PG=0): 4.37 µM
- GI50 (SK-MEL-28; PG=+50): 2.21 µM
- CC50 (SK-MEL-28; read-out: LC-50, PG=-50): 8.62 µM
- GI50 (786-0; 786-0): 0.523 µM
- CC50 (786-0; 786-0, read-out: LC-50): 37.3 µM
- activity at 0.01 µM (786-0; [4]): 102%
- activity at 0.1 µM (786-0; [4]): 96%
- activity at 1 µM (786-0; [4]): 32%
- activity at 10 µM (786-0; [4]): 3%
- activity at 100 µM (786-0; [4]): -90%
- IC (TGI) (786-0; 786-0, read-out: TGI): 10.7 µM
- Percent Growth (NCI-H460; [2]): -85%
- Percent Growth (NCI-H460; Log10 Concentration -5.0): 8%
- Percent Growth (NCI-H460; Log10 Concentration -6.0, 1 µM): 78%
- Percent Growth (NCI-H460; [3]): 91%
- Percent Growth (NCI-H460; Log10 Concentration -8.0): 99%
- TGI (NCI-H460; PG=0): 12.1 µM
- GI50 (NCI-H460; PG=+50): 2.51 µM
- CC50 (NCI-H460; read-out: LC-50, PG=-50): 42.1 µM
- Percent Growth (RXF-631; [2]): -78%
- Percent Growth (RXF-631; Log10 Concentration -5.0): -8%
- Percent Growth (RXF-631; Log10 Concentration -6.0, 1 µM): 30%
- Percent Growth (RXF-631; [3]): 74%
- Percent Growth (RXF-631; Log10 Concentration -8.0): 95%
- TGI (RXF-631; PG=0): 6.25 µM
- GI50 (RXF-631; PG=+50): 0.352 µM
- CC50 (RXF-631; read-out: LC-50, PG=-50): 39.5 µM
- Percent Growth (SNB-19; [2]): -57%
- Percent Growth (SNB-19; Log10 Concentration -5.0): -51%
- Percent Growth (SNB-19; Log10 Concentration -6.0, 1 µM): 48%
- Percent Growth (SNB-19; [3]): 97%
- Percent Growth (SNB-19; Log10 Concentration -8.0): 104%
- TGI (SNB-19; PG=0): 3.04 µM
- GI50 (SNB-19; PG=+50): 0.897 µM
- CC50 (SNB-19; read-out: LC-50, PG=-50): 9.78 µM
- Percent Growth (OVCAR-8; [2]): -95%
- Percent Growth (OVCAR-8; Log10 Concentration -5.0): -5%
- Percent Growth (OVCAR-8; Log10 Concentration -6.0, 1 µM): 37%
- Percent Growth (OVCAR-8; [3]): 81%
- Percent Growth (OVCAR-8; Log10 Concentration -8.0): 89%
- TGI (OVCAR-8; PG=0): 7.69 µM
- GI50 (OVCAR-8; PG=+50): 0.516 µM
- CC50 (OVCAR-8; read-out: LC-50, PG=-50): 31.8 µM
- effect against CNS cancer cell lines (CNS cancer cell lines): particularly effective against CNS cancer cell lines
- GI50 (SW-620; SW-620): 0.279 µM
- CC50 (SW-620; SW-620, read-out: LC-50): 28.6 µM
- activity at 0.01 µM (SW-620; [5]): 89%
- activity at 0.1 µM (SW-620; [5]): 76%
- activity at 1 µM (SW-620; [5]): 18%
- activity at 10 µM (SW-620; [5]): -21%
- activity at 100 µM (SW-620; [5]): -85%
- IC (TGI) (SW-620; SW-620, read-out: TGI): 2.87 µM
- Percent Growth (IGROV1; [2]): -73%
- Percent Growth (IGROV1; Log10 Concentration -5.0): -15%
- Percent Growth (IGROV1; Log10 Concentration -6.0, 1 µM): 30%
- Percent Growth (IGROV1; [3]): 85%
- Percent Growth (IGROV1; Log10 Concentration -8.0): 97%
- TGI (IGROV1; PG=0): 4.71 µM
- GI50 (IGROV1; PG=+50): 0.438 µM
- CC50 (IGROV1; read-out: LC-50, PG=-50): 39.9 µM
- Percent Growth (UACC-62; [2]): -84%
- Percent Growth (UACC-62; Log10 Concentration -5.0): -91%
- Percent Growth (UACC-62; Log10 Concentration -6.0, 1 µM): 92%
- Percent Growth (UACC-62; [3]): 100%
- Percent Growth (UACC-62; Log10 Concentration -8.0): 106%
- TGI (UACC-62; PG=0): 3.18 µM
- GI50 (UACC-62; PG=+50): 1.69 µM
- CC50 (UACC-62; read-out: LC-50, PG=-50): 5.99 µM
- Percent Growth (MALME-3M; [2]): -86%
- Percent Growth (MALME-3M; Log10 Concentration -5.0): -40%
- Percent Growth (MALME-3M; Log10 Concentration -6.0, 1 µM): 78%
- Percent Growth (MALME-3M; [3]): 115%
- Percent Growth (MALME-3M; Log10 Concentration -8.0): 113%
- TGI (MALME-3M; PG=0): 4.58 µM
- GI50 (MALME-3M; PG=+50): 1.72 µM
- CC50 (MALME-3M; read-out: LC-50, PG=-50): 16.4 µM
- Percent Growth (HCT-116; [2]): -81%
- Percent Growth (HCT-116; Log10 Concentration -5.0): 3%
- Percent Growth (HCT-116; Log10 Concentration -6.0, 1 µM): 83%
- Percent Growth (HCT-116; [3]): 103%
- Percent Growth (HCT-116; Log10 Concentration -8.0): 113%
- TGI (HCT-116; PG=0): 10.9 µM
- GI50 (HCT-116; PG=+50): 2.58 µM
- CC50 (HCT-116; read-out: LC-50, PG=-50): 42.8 µM
- GI50 (EKVX): 3.6 µM
- activity at 0.01 µM (EKVX; read-out: Percent Growth): 109%
- activity at 0.1 µM (EKVX; read-out: Percent Growth): 114%
- activity at 1 µM (EKVX; read-out: Percent Growth): 86%
- activity at 10 µM (EKVX; read-out: Percent Growth): 22%
- activity at 100 µM (EKVX; read-out: Percent Growth): -22%
- IC (TGI) (EKVX; read-out: TGI): 31.2 µM
- Percent Growth (SF-295; [2]): -91%
- Percent Growth (SF-295; Log10 Concentration -5.0): -31%
- Percent Growth (SF-295; Log10 Concentration -6.0, 1 µM): 23%
- Percent Growth (SF-295; [3]): 87%
- Percent Growth (SF-295; Log10 Concentration -8.0): 92%
- TGI (SF-295; PG=0): 2.68 µM
- GI50 (SF-295; PG=+50): 0.381 µM
- CC50 (SF-295; read-out: LC-50, PG=-50): 20.7 µM
